Assay results from patent US5189171A, “Antipsychotic benzodioxan derivatives” (American Home Products Corporation, priority 1992, dated 1993).
Several values for one entry are separate records, joined by “and”; a condition that tells them apart may be missing. Equal values may be shown once.

Columns and labels:
[1] = test system: dopamine synthesis (dopa accumulation; dopamine autoreceptor); test: Inhibition of dopa accumulation in GBL-treated rats (method of Walters and Roth); format: in vivo, rat (male, Sprague-Dawley); conditions: rat; for Dopa Accumulation (% inhib. @ 10 mg/kg, sc), limbic (L): limbic (L) brain tissue; for Dopa Accumulation (% inhib. @ 10 mg/kg, sc), tissue not indicated: (L)/(S) mark not given; for Dopa Accumulation (% inhib. @ 10 mg/kg, sc), striatal (S): striatal (S) brain tissue
Procedure: The effect of the compounds of the invention on the synthesis of dopamine was established by the method of Walters and Roth, Naunyn-Schmiedeberg's Arch. Pharmacol. 296:5-14, 1976, in which rats (male, Sprague-Dawley, Charles River, 200-350 g) were administered vehicle or test drug ten minutes prior to the administration of gamma butyrolactone (GBL; 750 mg/kg, ip to inhibit dopaminergic impulse flow) and 20 minutes prior to NSD-1015 (100 mg/kg, ip to prevent the conversion of dopa to dopamine). Thirty minutes after NSD-1015 all rats were humanely euthenized and the nucleus accumbens and the straitum were removed for analysis. Following perchloric acid extraction of the tissue, the extracts were placed over alumina columns to collect and concentrate dopa and other catechols. This eluate was then subjected to HPLC analysis using electrochemical detection to quantify the levels of dopa present. Dopamine autoreceptor agonists, under the conditions used above, inhibit dopa accumulation.

5-HT1A receptor = conditions: cited from earlier work
[2] = biological target: T1, serotonin 5-HT1A receptor (Rattus norvegicus, UniProt P19327); test: Affinity for the serotonin 5-HT1A receptor, displacement of [3H]8-OHDPAT (Hall et al.); format: binding; conditions: [3H]8-OHDPAT displacement; for inhibition at 0.1 µM: read-out: Receptor Affinities 5-HT1A (% @ ( ) μM); for IC50: read-out: Receptor Affinities 5-HT1A (IC50 (nM))
T1 construct: following the procedure of Hall et al., J. Neurochem; 44, 1685 (1985); from tissue
T1 sequence (P19327 1-422): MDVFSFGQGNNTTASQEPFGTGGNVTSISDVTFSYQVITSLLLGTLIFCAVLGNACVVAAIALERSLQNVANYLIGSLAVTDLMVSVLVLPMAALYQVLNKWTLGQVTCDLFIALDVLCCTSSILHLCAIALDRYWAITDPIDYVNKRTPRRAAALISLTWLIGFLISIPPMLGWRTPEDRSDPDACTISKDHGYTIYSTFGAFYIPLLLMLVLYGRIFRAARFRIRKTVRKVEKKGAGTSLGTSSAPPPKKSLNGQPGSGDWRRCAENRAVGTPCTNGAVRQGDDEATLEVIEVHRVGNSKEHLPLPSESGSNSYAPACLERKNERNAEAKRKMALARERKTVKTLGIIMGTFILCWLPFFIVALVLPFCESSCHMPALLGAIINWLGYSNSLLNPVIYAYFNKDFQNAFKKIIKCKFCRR
From the text: Affinity for the serotonin 5-HT1A receptor was established by testing the claimed compound's ability to displace [^3 H]8-OHDPAT (dipropylaminotetralin) from the 5-HT1A serotonin receptor following the procedure of Hall et al., J. Neurochem. 44, 1685 (1985). […] The anxiolytic activity of buspirone is believed to be, at least partially, due to its 5-HT1A receptor affinity (Vander Maclen et al., Eur. J. Pharmacol. 1986, 129 (1-2) 133-[…]).

dopamine D2 receptor = biological target: T2, dopamine D2 receptor (Rattus norvegicus, UniProt P61169); test: Affinity for the dopamine D2 receptor, 3H-spiroperidol binding in homogenized limbic brain tissue; conditions: for inhibition at 1 µM: read-out: Receptor Affinities D2 (% @ ( ) μM); for IC50: read-out: Receptor Affinities D2 (IC50 (nM))
T2 construct: from tissue; host or cells: homogenized limbic brain tissue
Procedure: Affinity for the dopamine D2 receptor was established by the standard experimental test procedure of Fields, et al., Brain Res., 136, 578 (1977) and Yamamura et al., eds., Neurotransmitter Receptor Binding, Raven Press, New York (1978) wherein homogenized limbic brain tissue is incubated with ^3 H-spiroperidol and various concentrations of test compound, filtered and washed and shaken with Hydrofluor scintillation cocktail (National Diagnostics) and counted in a Packard 460 CD scintillation counter.

mouse locomotor activity = test: Reduction of mouse locomotor activity (hypolocomotion; Martin and Bendensky); format: in vivo, mouse (male, CF-1); conditions: horizontal activity counts 10 to 20 minutes after dosing; for ED50: Mus musculus, ip, 20 min
Procedure: The antipsychotic activity of the compounds of the invention was further established by a determination of the compounds' ability to reduce mouse locomotor activity according to the method of Martin and Bendensky, J. Pharmacol. Exp. Therap. 229: 706-711, 1984, in which mice (male, CF-1, Charles River, 20-30 g) were injected with vehicle or various doses of each drug and locomotor activity was measured for 30 minutes using automated infrared activity monitors (Omnitech-8×8 inch open field) located in a darkened room. ED50's were calculated from the horizontal activity counts collected from 10 to 20 minutes after dosing using a nonlinear regression analysis with inverse prediction.

T2 sequence (P61169 whole entry): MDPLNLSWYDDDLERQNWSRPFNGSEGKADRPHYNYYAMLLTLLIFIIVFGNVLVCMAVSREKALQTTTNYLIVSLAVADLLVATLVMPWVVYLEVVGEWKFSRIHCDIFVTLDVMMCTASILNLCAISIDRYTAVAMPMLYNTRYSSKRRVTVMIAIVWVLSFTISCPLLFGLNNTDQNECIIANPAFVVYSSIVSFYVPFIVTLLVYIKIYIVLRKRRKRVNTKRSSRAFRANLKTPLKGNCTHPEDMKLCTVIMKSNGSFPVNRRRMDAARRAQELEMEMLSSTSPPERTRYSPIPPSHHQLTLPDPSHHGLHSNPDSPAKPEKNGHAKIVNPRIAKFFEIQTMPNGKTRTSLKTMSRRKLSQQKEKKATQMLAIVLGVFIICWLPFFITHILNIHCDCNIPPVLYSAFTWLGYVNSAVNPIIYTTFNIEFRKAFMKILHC

In the case of O=c1ccc2ccc(OCCCNC[C@H]3COc4ccc(O)cc4O3)cc2o1 [Example 20, (S)-7-[3-[[(2,3-Dihydro-7-hydroxy-1,4-benzodioxin-2-yl)methyl]amino]propoxy]-2H-1-benzopyran-2-one], the “Dopa Accumulation (% inhib. @ 10 mg/kg, sc), limbic (L)” value [1] is reported as 45%.

In the case of O=c1ccc2ccc(OCCCNC[C@@H]3COc4cc(O)ccc4O3)cc2o1 [Example 10, (R)-7-[3-[[(2,3-Dihydro-6-hydroxy-1,4-benzodioxin-2-yl)methyl]amino]propoxy]-2H-1-benzopyran-2-one], the “Dopa Accumulation (% inhib. @ 10 mg/kg, sc), tissue not indicated” value [1] is reported as 24.0%.

For O=c1ccc2ccc(OCCCNCC3COc4cc(OCc5ccccc5)ccc4O3)cc2o1 (stereo not drawn) [Example 4, 7-[3-[[(2,3-Dihydro-6-phenylmethoxy-1,4-benzodioxin-2-yl)methyl]amino]propoxy]-2H-1-benzopyran-2-one], the “Dopa Accumulation (% inhib. @ 10 mg/kg, sc), limbic (L)” value [1] was 20%.

For O=C1CC2(CCCC2)CC(=O)N1CCCCNCC1COc2ccccc2O1 (single isomer, unassigned; (-)) [(-)-MDL 72832], the “binding at the 5-HT1A receptor site relative to the dextrorotary isomer” value (5-HT1A receptor; (-)-isomer vs dextrorotary isomer, Fozard et al. 1987) is listed as 32 times.

With O=c1ccc2c(OCCCNCC3COc4ccccc4O3)cccc2[nH]1 (stereo not drawn) [Example 7, 5-[3-[[(2,3-Dihydro-1,4-benzodioxin-2-yl)methyl]amino]propoxy]-2(1H)-quinolinone] the “Dopa Accumulation (% inhib. @ 10 mg/kg, sc), limbic (L)” value [1] was 1.5% and the “Dopa Accumulation (% inhib. @ 10 mg/kg, sc), striatal (S)” value [1] was 51.3%.

In the case of O=C1CC2(CCCC2)CC(=O)N1CCCCNCC1COc2ccccc2O1 (stereo not drawn) [MDL 72832, 8-[4-(1,4-benzodioxan-2-ylmethylamino)butyl]-8-azaspiro[4.5]decane-7,9-dione], the “selectivity as ligand for 5-HT1A receptors (in words)” value (5-HT1A receptor; Fozard et al. 1987) is given as “selective and stereospecific”.

With CC(=O)Oc1ccc2c(c1)OCC(CNCCCOc1ccc3ccc(=O)oc3c1)O2 (stereo not drawn) [Example 11, 7-[3-[[(2,3-Dihydro-6-acetoxy-1,4-benzodioxin-2-yl)methyl]amino]propoxy]-2H-1-benzopyran-2-one] the inhibition at 0.1 µM [2] was 78% and the “Dopa Accumulation (% inhib. @ 10 mg/kg, sc), limbic (L)” value [1] was 37.7%.

In the case of COc1cc(OC)c2c(c1)OCC(CNCCCOc1ccc3ccc(=O)oc3c1)O2 (stereo not drawn) [Example 19], the “Dopa Accumulation (% inhib. @ 10 mg/kg, sc), limbic (L)” value [1] is reported as 23%.

For COc1ccc2c(c1)OC(CNCCCOc1ccc3ccc(=O)oc3c1)CO2 (stereo not drawn) [Example 9, 7-[3-[[(2,3-Dihydro-7-methoxy-1,4-benzodioxin-2-yl)methyl]amino]propoxy]-2H-1-benzopyran-2-one], the inhibition at 1 µM (dopamine D2 receptor) was 66% and the “Dopa Accumulation (% inhib. @ 10 mg/kg, sc), limbic (L)” value [1] was 21.7%.

For CCN(CCCOc1ccc2ccc(=O)oc2c1)CC1COc2ccc(O)cc2O1 (stereo not drawn) [Example 12, 7-[3-[[(2,3-Dihydro-7-hydroxy-1,4-benzodioxin-2-yl)methyl]ethylamino]propoxy]-2H-1-benzopyran-2-one], the inhibition at 0.1 µM [2] was 81%, the ED50 (mouse locomotor activity) was 1.6 mg/kg and the “Dopa Accumulation (% inhib. @ 10 mg/kg, sc), limbic (L)” value [1] was 61.6%.

In the case of O=c1ccc2ccc(OCCCNC[C@H]3COc4cc(O)ccc4O3)cc2o1 [Example 8, (S)-7-[3-[[(2,3-Dihydro-6-hydroxy-1,4-benzodioxin-2-yl)methyl]amino]propoxy]-2H-1-benzopyran-2-one], the IC50 [2] is reported as 104 nM, the ED50 (mouse locomotor activity) is reported as 3.5 mg/kg and the “Dopa Accumulation (% inhib. @ 10 mg/kg, sc), limbic (L)” value [1] is reported as 50%.

Molecule O=c1ccc2ccc(OCCCNCC3COc4ccc(O)cc4O3)cc2o1 (stereo not drawn) [Example 6, 7-[3-[[(2,3-Dihydro-7-hydroxy-1,4-benzodioxin-2-yl)methyl]amino]propoxy]-2H-1-benzopyran-2-one] has an inhibition at 1 µM (dopamine D2 receptor) of 100%, an IC50 [2] of 6 nM and an ED50 (mouse locomotor activity) of 0.19 mg/kg. The “Dopa Accumulation (% inhib. @ 10 mg/kg, sc), limbic (L)” value [1] was 76% and the “Dopa Accumulation (% inhib. @ 10 mg/kg, sc), striatal (S)” value [1] was 73%.

In the case of COc1cccc2c1OCC(CNCCCOc1ccc3ccc(=O)oc3c1)O2 (stereo not drawn) [Example 2, 7-[3-[[(2,3-Dihydro-5-methoxy-1,4-benzodioxin-2-yl)methyl]amino]propoxy]-2H-1-benzopyran-2-one], the “Dopa Accumulation (% inhib. @ 10 mg/kg, sc), limbic (L)” value [1] is reported as -12%.

In the case of CN(CCCOc1ccc2ccc(=O)oc2c1)CC1COc2cc(O)ccc2O1 (stereo not drawn) [Example 15, 7-[3-[[(2,3-Dihydro-6-hydroxy-1,4-benzodioxin-2-yl)methyl]methylamino]propoxy]-2H-1-benzopyran-2-one], the inhibition at 0.1 µM [2] is reported as 23% and the “Dopa Accumulation (% inhib. @ 10 mg/kg, sc), tissue not indicated” value [1] is reported as 9.2%.

For O=C1CC2(CCCC2)CC(=O)N1CCCCN1CCN(c2ncccn2)CC1 [buspirone], the “affinity for the 5-HT1A serotonin receptor subtype (in words)” value (5-HT1A receptor; standard for anxiolytic activity) is listed as “potent affinity”.

O=c1ccc2ccc(OCCCNCC3COc4ccccc4O3)cc2o1 (stereo not drawn) [Example 1, 7-[3-[[(2,3-Dihydro-1,4-benzodioxin-2-yl)methyl]amino]propoxy]-2H-1-benzopyran-2-one] gave an IC50 (dopamine D2 receptor) of 112 nM, an IC50 [2] of 0.5 nM and an ED50 (mouse locomotor activity) of 0.58 mg/kg. The “Dopa Accumulation (% inhib. @ 10 mg/kg, sc), limbic (L)” value [1] was 39% and the “Dopa Accumulation (% inhib. @ 10 mg/kg, sc), striatal (S)” value [1] was 1%.

With COc1ccc2c(c1)OC(CN(C)CCCOc1ccc3ccc(=O)oc3c1)CO2 (stereo not drawn) [Example 14] the “Dopa Accumulation (% inhib. @ 10 mg/kg, sc), tissue not indicated” value [1] was 19.5%.

For O=c1ccc2ccc(OCCCNCC3COc4cc(O)ccc4O3)cc2o1 (stereo not drawn) [Example 5, 7-[3-[[(2,3-Dihydro-6-hydroxy-1,4-benzodioxin-2-yl)methyl]amino]propoxy]-2H-1-benzopyran-2-one], the IC50 (dopamine D2 receptor) was 337 nM and 730 nM, the IC50 [2] was 112 nM and the ED50 (mouse locomotor activity) was 1.62 mg/kg. For the same molecule, the “Hypolocomotion (ED50 mg/kg, ip)” value (mouse locomotor activity) was 2.04 mg/kg, the “Dopa Accumulation (% inhib. @ 10 mg/kg, sc), limbic (L)” value [1] was 60% and the “Dopa Accumulation (% inhib. @ 10 mg/kg, sc), striatal (S)” value [1] was 18%.
